What all share (assay type): biochemical
Assay [1] deals with T1, recombinant Aurora A (Homo sapiens, UniProt O14965).
T1 construct: purchased Upstate, Lake Placid, N.Y
T1 sequence (O14965 1-403): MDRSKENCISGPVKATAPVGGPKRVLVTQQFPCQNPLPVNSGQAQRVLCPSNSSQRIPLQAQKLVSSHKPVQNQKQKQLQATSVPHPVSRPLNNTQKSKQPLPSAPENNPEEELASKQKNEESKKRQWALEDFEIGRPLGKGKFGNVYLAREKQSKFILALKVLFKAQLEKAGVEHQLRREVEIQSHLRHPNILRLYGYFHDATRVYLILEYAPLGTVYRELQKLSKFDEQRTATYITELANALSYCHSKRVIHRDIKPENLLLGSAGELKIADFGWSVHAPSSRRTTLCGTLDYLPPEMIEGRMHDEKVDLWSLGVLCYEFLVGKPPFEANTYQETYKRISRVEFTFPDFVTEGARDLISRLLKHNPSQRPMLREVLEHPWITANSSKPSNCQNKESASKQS
In words: Aurora A (Aurora 2) Inhibition Assay (Z'-Lyte). The following applies: 100 μM compound; ATP 10 μM; 1 h.

In assay [2] the target is T2, ABL2 (Arg) (Homo sapiens, UniProt P42684).
T2 construct: purchased Invitrogen, Carlsbad, Calif
In words: Kinase Selectivity Assay. Further: ATP at apparent Km or 100 µM. The following applies: read-out: Percent Inhibition at 1 μM. The protocol:
(§1) Compounds were assayed for inhibitory activity against a panel of different kinase enzymes at a concentration of 1 μM. Where appropriate, full-length enzymes or catalytically active fragments, with N-terminal or C-terminal His- or GST-tags, were used (Invitrogen, Carlsbad, Calif.). Test compounds were initially diluted to 100× test concentration in 100% DMSO. This 100× concentration was then diluted to a 4× working concentration in Kinase Buffer (50 mM HEPES pH 7.5, 0.01% Brij-35, 10 mM MgCl2, 1 mM EGTA) and 2.5 μL was then added to a low volume NBS, 384-well plate (Corning, Corning, N.Y.). Five μL of a 2× peptide/kinase mixture (Invitrogen, Carlsbad, Calif.), as appropriate (listed in Table 3), was then added and the reaction was then initiated by addition of 2.5 μL of a 4× working concentration of ATP in Kinase Buffer.

The target of assay [3] is T3, AKT1 (PKB alpha) (Homo sapiens, UniProt P31749).
T3 construct: purchased Invitrogen, Carlsbad, Calif
In words: Kinase Selectivity Assay. Further: ATP at apparent Km or 100 µM. As to conditions: read-out: Percent Inhibition at 1 μM. The protocol: as §1

In assay [4] the target is T4, AURKB (Aurora B) (Homo sapiens, UniProt Q96GD4).
T4 construct: purchased Invitrogen, Carlsbad, Calif
As to the kind of experiment: Kinase Selectivity Assay. Further: ATP at apparent Km or 100 µM. As to conditions: read-out: Percent Inhibition at 1 μM. Here is the method:
as §1

In assay [5] the target is T5, BLK (Homo sapiens, UniProt P51451).
T5 construct: purchased Invitrogen, Carlsbad, Calif
In words: Kinase Selectivity Assay. Further: ATP at apparent Km or 100 µM. As to conditions: read-out: Percent Inhibition at 1 μM. The protocol: as §1

In assay [6] the target is T6, CDK2/cyclin A (Homo sapiens, UniProt P24941).
T6 construct: purchased Invitrogen, Carlsbad, Calif
As to the kind of experiment: Kinase Selectivity Assay. Further: ATP at apparent Km or 100 µM. The following applies: read-out: Percent Inhibition at 1 μM. Here is the method:
as §1

The target in assay [7] is T7, CSF1R (FMS) (Homo sapiens, UniProt P07333).
T7 construct: purchased Invitrogen, Carlsbad, Calif
As to the kind of experiment: Kinase Selectivity Assay. Further: ATP at apparent Km or 100 µM. As to conditions: read-out: Percent Inhibition at 1 μM. Here is the method:
as §1

For assay [8], the target named is T8, DAPK3 (ZIPK) (Homo sapiens, UniProt O43293).
T8 construct: purchased Invitrogen, Carlsbad, Calif
As to the kind of experiment: Kinase Selectivity Assay. The following applies: read-out: Percent Inhibition at 1 μM. The protocol: as §1

Assay [9] has as its target T9, EPHA1 (Homo sapiens, UniProt P21709).
T9 construct: purchased Invitrogen, Carlsbad, Calif
In words: Kinase Selectivity Assay. The following applies: read-out: Percent Inhibition at 1 μM. The protocol: as §1

Assay [10] deals with T10, FLT4 (VEGFR3) (Homo sapiens, UniProt P35916).
T10 construct: full-length enzymes or catalytically active fragments; purchased Invitrogen
As to the kind of experiment: Kinase Selectivity Assay. The following applies: read-out: Percent Inhibition at 1 μM. The protocol:
as §1

The target in assay [11] is T11, FYN (Homo sapiens, UniProt P06241).
T11 construct: full-length enzymes or catalytically active fragments; purchased Invitrogen
In words: Kinase Selectivity Assay. As to conditions: read-out: Percent Inhibition at 1 μM. Here is the method:
as §1

The target of assay [12] is T12, GSK3A (GSK3 alpha) (Homo sapiens, UniProt P49840).
T12 construct: full-length enzymes or catalytically active fragments; purchased Invitrogen
In words: Kinase Selectivity Assay. As to conditions: read-out: Percent Inhibition at 1 μM. Here is the method: as §1

Assay [13] deals with T13, IRAK4 (Homo sapiens, UniProt Q9NWZ3).
T13 construct: full-length enzymes or catalytically active fragments; purchased Invitrogen
As to the kind of experiment: Kinase Selectivity Assay. As to conditions: read-out: Percent Inhibition at 1 μM. The protocol: as §1

The target of assay [14] is T14, JAK2 (Homo sapiens, UniProt O60674).
T14 construct: full-length enzymes or catalytically active fragments; purchased Invitrogen
As to the kind of experiment: Kinase Selectivity Assay. As to conditions: read-out: Percent Inhibition at 1 μM. Here is the method:
as §1

Assay [15] addresses T15, KIT (Homo sapiens, UniProt P10721).
T15 construct: full-length enzymes or catalytically active fragments; purchased Invitrogen
As to the kind of experiment: Kinase Selectivity Assay. The following applies: read-out: Percent Inhibition at 1 μM. The protocol:
as §1

For assay [16], the target named is T16, LYN A (Homo sapiens, UniProt P07948).
T16 construct: full-length enzymes or catalytically active fragments; purchased Invitrogen
As to the kind of experiment: Kinase Selectivity Assay. The following applies: read-out: Percent Inhibition at 1 μM. Here is the method: as §1

Assay [17] concerns the target T17, NTRK1 (TRKA) (Homo sapiens, UniProt P04629).
T17 construct: full-length enzymes or catalytically active fragments; purchased Invitrogen
In words: Kinase Selectivity Assay. As to conditions: read-out: Percent Inhibition at 1 μM. The protocol: as §1

For assay [18], the target named is T18, PDGFRA D842V (Homo sapiens, UniProt P16234, D842V).
T18 construct: full-length enzymes or catalytically active fragments; purchased Invitrogen
In words: Kinase Selectivity Assay. As to conditions: read-out: Percent Inhibition at 1 μM. Here is the method: as §1

Assay [19] concerns the target T19, PDGFRA T674I (Homo sapiens, UniProt P16234, T674I).
T19 construct: full-length enzymes or catalytically active fragments; purchased Invitrogen
As to the kind of experiment: Kinase Selectivity Assay. The following applies: read-out: Percent Inhibition at 1 μM. The protocol: as §1

Assay [20] concerns the target T20, ROS1 (Homo sapiens, UniProt P08922).
T20 construct: full-length enzymes or catalytically active fragments; purchased Invitrogen
In words: Kinase Selectivity Assay. As to conditions: read-out: Percent Inhibition at 1 μM. Here is the method:
as §1

The target in assay [21] is T21, recombinant human Flt3, residues 564-end (Homo sapiens, UniProt P36888).
T21 construct: recombinant human Flt3, residues 564-end; GST (N); purchased Upstate USA Inc, Charlottesville, Va
As to the kind of experiment: Flt3 Kinase Inhibition Assay. As to conditions: read-out: inhibition of Flt3 at a concentration of 1 μM; 1 μM compound; 33P-ATP filter assay.
Experimental: Compounds were assayed for Flt3 kinase inhibitory activity using N-terminal GST-tagged recombinant human Flt3, residues 564-end (Upstate USA Inc, 706 Forest Street, Charlottesville, Va.). Serial dilutions of compound were assayed in a final reaction volume of 25 μL by incubating a solution of the above Flt3 kinase (5-10 mU), 8 mM MOPS (3-(N-morpholino) propanesulfonic acid) pH 7.0, 0.2 mM EDTA (ethylenediamine tetracetic acid), 50 μM amino acid sequence [sequence] (SEQ ID NO: 1)(Upstate USA Inc, 706 Forest Street, Charlottesville, Va.), and 10 mM magnesium acetate and [γ-^33P-ATP] (specific activity of about 500 cpm/pmol, concentration as required). The reaction was initiated by the addition of the magnesium acetate and [γ-^33P-ATP] mixture. After incubation for 40 minutes at room temperature, the reaction was stopped bythe addition of 5 μL of a 3% phosphoric acid solution. A 10 μL aliquote of the reaction was then spotted onto a P30 filtermat (PerkinElmer, Wellesley, Mass.) and washed three times for five minutes in 75 mM phosphoric acid and once in methanol prior to drying and scintillation counting. Inhibition of Flt3 activity was determined by comparison to assays that contained no inhibitor.

Assay [22] addresses SRC (Homo sapiens, UniProt P12931). As to the kind of experiment: Src Kinase Inhibition Assay. Also on record: His (N); purchased Upstate USA Inc, Charlottesville, Va. The following applies: read-out: inhibition of Src at a concentration of 1 μM; 1 μM compound; 33P-ATP filter assay. Here is the method: Compounds were assayed for Src kinase inhibitory activity using N-terminal His-tagged human Src (Upstate USA Inc, 706 Forest Street, Charlottesville, Va.).

T5 sequence (P51451 whole entry): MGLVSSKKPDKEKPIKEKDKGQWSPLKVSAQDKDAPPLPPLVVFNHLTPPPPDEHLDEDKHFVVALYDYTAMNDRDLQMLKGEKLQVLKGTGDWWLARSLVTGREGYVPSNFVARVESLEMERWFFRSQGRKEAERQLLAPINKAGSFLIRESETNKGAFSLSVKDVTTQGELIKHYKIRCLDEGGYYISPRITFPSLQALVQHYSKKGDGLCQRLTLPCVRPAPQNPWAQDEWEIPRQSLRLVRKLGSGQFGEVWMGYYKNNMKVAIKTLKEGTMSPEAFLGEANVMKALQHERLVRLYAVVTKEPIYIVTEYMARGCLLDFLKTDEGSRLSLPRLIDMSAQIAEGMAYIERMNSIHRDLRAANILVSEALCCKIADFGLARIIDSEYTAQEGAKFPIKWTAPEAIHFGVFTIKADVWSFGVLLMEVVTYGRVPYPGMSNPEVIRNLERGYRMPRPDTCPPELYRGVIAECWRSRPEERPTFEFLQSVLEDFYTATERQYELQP
T3 sequence (P31749 whole entry): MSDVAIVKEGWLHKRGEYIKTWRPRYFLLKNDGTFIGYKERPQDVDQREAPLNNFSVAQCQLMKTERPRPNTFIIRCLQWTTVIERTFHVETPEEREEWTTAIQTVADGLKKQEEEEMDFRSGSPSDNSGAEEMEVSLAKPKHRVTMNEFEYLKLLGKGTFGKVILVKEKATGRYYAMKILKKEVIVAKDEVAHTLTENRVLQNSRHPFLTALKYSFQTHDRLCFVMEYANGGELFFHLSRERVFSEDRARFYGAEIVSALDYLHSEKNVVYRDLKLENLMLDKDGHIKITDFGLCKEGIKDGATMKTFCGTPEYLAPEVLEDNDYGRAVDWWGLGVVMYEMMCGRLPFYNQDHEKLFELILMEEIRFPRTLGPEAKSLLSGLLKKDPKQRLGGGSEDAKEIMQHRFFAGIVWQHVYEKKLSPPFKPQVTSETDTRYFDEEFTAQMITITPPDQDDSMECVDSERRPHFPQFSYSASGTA
T10 sequence (P35916 25-1363): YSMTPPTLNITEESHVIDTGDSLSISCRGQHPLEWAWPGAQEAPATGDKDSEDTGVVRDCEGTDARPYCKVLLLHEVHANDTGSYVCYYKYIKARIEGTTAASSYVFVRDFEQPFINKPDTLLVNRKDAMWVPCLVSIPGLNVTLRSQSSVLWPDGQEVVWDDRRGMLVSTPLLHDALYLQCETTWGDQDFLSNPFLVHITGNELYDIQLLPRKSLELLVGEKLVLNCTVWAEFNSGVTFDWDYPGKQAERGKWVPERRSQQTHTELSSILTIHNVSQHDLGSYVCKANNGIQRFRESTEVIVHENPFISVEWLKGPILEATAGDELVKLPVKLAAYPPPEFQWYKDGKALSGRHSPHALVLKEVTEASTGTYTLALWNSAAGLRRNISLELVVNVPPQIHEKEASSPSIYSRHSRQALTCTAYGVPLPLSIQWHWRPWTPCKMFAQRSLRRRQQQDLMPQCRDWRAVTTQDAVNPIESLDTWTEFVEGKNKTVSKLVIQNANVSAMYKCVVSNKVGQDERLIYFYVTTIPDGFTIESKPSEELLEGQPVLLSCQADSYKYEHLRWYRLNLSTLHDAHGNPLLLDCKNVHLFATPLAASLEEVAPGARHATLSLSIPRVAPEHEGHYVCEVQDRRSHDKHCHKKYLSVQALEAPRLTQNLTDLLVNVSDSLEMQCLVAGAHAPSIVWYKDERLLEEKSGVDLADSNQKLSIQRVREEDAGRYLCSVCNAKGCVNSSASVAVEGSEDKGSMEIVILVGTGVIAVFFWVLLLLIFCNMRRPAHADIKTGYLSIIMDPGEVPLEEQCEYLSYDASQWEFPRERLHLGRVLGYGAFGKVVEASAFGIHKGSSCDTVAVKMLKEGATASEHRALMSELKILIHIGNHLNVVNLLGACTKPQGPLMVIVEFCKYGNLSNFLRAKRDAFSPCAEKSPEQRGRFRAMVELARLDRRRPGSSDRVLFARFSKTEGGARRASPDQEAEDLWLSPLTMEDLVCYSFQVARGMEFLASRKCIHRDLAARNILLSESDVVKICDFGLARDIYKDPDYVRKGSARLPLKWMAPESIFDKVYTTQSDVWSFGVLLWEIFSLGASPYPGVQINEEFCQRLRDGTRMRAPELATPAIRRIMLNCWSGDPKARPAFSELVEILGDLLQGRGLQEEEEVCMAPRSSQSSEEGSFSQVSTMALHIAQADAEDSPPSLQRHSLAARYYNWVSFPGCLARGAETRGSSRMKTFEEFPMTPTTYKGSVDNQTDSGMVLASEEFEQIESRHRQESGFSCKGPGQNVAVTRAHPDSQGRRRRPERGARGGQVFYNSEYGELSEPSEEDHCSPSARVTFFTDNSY
T9 sequence (P21709 26-976): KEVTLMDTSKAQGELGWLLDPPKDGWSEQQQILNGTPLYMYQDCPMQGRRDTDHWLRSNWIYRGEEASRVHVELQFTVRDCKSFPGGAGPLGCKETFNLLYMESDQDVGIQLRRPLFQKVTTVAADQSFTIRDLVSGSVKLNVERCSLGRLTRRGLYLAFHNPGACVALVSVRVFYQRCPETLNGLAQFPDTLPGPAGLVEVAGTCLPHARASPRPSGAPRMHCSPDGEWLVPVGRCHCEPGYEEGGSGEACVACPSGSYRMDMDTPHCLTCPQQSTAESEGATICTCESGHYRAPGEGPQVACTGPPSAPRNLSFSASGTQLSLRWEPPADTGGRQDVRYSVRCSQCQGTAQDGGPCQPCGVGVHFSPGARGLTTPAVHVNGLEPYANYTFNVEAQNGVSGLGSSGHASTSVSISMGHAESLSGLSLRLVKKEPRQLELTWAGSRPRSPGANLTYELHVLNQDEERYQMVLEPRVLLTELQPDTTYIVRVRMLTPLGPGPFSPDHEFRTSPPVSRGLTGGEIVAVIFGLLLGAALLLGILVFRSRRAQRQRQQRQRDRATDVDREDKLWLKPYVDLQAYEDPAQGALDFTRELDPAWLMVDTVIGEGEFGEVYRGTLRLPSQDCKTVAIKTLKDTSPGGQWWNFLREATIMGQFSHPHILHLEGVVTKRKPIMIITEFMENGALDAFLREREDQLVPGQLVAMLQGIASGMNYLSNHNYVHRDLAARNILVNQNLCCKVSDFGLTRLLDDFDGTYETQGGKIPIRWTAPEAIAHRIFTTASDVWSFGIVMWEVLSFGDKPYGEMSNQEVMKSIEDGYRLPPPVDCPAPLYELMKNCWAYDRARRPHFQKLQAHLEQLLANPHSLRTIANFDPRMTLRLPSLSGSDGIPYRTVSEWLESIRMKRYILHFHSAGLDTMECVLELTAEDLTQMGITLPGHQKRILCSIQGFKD
T11 sequence (P06241 whole entry, the tested form may be a part): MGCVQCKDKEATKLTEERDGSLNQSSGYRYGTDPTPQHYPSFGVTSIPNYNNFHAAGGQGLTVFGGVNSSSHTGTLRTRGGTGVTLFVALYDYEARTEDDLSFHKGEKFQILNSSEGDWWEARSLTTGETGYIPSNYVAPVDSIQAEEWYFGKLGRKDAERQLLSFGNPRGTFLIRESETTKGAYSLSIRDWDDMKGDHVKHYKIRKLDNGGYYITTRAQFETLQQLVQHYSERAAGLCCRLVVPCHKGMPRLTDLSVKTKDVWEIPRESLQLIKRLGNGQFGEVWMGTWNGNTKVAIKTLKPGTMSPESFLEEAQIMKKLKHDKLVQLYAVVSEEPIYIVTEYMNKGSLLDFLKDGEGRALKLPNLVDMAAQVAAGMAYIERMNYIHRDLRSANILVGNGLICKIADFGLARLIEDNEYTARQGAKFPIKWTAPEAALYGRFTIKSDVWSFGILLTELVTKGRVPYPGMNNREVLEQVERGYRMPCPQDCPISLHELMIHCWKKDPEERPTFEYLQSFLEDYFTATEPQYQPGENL
T8 sequence (O43293 whole entry): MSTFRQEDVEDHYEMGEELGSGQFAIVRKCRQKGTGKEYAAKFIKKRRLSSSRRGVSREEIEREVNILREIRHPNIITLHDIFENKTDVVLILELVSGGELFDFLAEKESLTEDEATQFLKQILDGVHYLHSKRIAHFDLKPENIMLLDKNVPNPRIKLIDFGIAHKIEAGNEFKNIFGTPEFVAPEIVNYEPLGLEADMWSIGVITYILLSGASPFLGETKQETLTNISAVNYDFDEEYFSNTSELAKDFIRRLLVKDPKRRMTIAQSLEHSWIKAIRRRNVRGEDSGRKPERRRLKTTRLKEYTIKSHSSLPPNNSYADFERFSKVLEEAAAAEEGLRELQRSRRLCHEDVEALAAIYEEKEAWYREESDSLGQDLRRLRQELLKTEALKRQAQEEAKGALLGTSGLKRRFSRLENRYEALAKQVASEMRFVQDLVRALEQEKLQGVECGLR
T4 sequence (Q96GD4 whole entry): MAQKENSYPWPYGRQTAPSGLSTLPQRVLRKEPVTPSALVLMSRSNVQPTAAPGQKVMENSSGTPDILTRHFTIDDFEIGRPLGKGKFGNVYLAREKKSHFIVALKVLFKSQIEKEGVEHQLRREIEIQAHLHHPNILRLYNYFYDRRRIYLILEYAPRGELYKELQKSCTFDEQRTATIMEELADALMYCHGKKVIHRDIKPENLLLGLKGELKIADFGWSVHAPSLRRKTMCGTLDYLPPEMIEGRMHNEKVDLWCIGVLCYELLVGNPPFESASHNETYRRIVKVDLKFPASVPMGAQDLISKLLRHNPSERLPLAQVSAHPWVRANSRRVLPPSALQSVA
T21 sequence (P36888 564-993 limits assumed): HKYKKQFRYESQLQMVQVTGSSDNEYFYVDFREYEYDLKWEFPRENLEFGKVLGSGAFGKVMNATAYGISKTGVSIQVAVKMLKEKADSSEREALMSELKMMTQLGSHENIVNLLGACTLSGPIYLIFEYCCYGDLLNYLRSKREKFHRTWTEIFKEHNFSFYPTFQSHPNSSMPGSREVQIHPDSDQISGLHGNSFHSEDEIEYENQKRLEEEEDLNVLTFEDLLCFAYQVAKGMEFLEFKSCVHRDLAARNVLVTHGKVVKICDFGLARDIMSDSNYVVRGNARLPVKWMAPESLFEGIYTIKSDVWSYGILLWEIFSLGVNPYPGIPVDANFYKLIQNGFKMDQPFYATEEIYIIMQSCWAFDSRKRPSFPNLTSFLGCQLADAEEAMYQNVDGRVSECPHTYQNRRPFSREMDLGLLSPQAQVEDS

As for `Cc1cc(Nc2nc(/C=C/c3ccccc3)nc(N3CCN(C)CC3)c2N)[nH]n1` [Example 10, 6-(4-methylpiperazin-1-yl)-N-(3-methyl-1H-pyrazol-5-yl)-2-[(E)-2-phenylvinyl]pyrimidin-4,5-diamine], the inhibition at 100 µM in assay [1] amounted to 100%. In addition, the inhibition at 1 µM worked out at 32% in assay [2]; 9% in assay [3]; 37% in [4]; 67% in assay [5]; 8% in assay [6]; 80% in assay [7]. For the same compound, the inhibition at 1 µM in assay [8] was found to be 93%; in assay [9] it was 52%; in assay [10] it was 87%; in [11] it was 50%; in assay [12] it was 38%; in [13], 14%. Further, the inhibition at 1 µM was 61% in assay [14]; 39% in [15]; 63% in assay [16]; 92% in assay [17]; 9% in assay [18]; 65% in assay [19]. The inhibition at 1 µM in [20] worked out at 54%.

On to `Cc1cc(Nc2cc(N3CCN(C)CC3)nc(/C=C/c3ccccc3)n2)n[nH]1` [Example 31, 6-(4-methylpiperazin-1-yl)-N-(3-methyl-1H-pyrazol-5-yl)-2-[(E)-2-phenylvinyl]pyrimidin-4-amine], for which, in assay [1], the inhibition at 100 µM worked out at 100%. The inhibition at 1 µM is approximately 96% in [21]; 74% in [2]; 5% in assay [3]; 75% in assay [4]; 90% in assay [5]; 8% in [6]. Also, the inhibition at 1 µM in assay [7] was determined as 97%; in assay [8], 68%; in assay [9], 77%; in [10] it was 97%; in [11], 89%; in [12] it was 36%. Also, the inhibition at 1 µM in assay [13] is 63%; in assay [14] it was 91%; in [15], 75%; in assay [16] it was 84%; in assay [17], 96%; in assay [18], 24%. Further, the values for the inhibition at 1 µM in assay [19], in [20] and in assay [22] were 88%, 65% and approximately 95%, respectively.

The values above are taken from patent US7563787B2, “Substituted pyrazole compounds” (Miikana Therapeutics, Inc., priority 2005, dated 2009).
